These results are taken from EP1161524B1, “CELLS COEXPRESSING AN AMYLOID PRECURSOR PROTEIN AND AN $g(a)-SECRETASE AND THEIR USES IN TEST METHODS AND DIAGNOSTICS” (Fahrenholz, Falk, priority 1999, dated 2000).

One assay deals with T1, gereinigtes ADAM 10 (Bos taurus, UniProt Q10741).
T1 construct: daß die proteolytisch aktivierte Form der Disintegrin-Metalloprotease ADAM 10 im wesentlichen in der Plasmamembranen lokalisiert ist; from tissue; host or cells: bovine kidney plasma membranes
T1 sequence (Q10741 214-748): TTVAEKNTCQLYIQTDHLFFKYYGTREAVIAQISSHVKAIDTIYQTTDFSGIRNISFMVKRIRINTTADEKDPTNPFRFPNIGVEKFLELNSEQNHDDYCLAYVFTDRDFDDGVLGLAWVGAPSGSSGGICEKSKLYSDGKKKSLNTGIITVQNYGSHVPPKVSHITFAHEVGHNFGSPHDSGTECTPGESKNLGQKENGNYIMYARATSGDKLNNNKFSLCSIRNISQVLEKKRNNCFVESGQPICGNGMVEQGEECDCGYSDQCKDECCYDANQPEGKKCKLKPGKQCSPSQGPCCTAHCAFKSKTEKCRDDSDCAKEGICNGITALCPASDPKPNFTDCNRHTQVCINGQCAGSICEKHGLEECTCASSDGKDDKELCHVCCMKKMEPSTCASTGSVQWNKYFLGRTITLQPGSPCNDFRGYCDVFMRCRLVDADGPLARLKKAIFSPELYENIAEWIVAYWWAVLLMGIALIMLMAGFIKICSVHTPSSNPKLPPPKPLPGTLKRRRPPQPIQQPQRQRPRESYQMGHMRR
Briefly: Inhibition of the proteolytic cleavage of Aβ(11-28) by purified ADAM 10 (metalloproteinase inhibitors). It is filed as biochemical, Rind (Bos taurus). The following applies: inhibitor concentration 1 mM.

A further assay has as its system HEK-Zellen. Briefly: Immunoblot analysis of APPsα secretion into the medium (antibody 6E10), untransfected HEK cells. It is filed as cell-based. The following applies: Homo sapiens, HEK293, 1 µm PMA, 4 h, Fig. 5 lanes 1 and 2, read-out: Erhöhung der APPsα-Freisetzung. An excerpt:
(§1) Fig. 5 zeigt die Sekretion von APPsα von HEK- und HEK-ADAM-10-Zellen. • (A) Die Zellen wurden in Gegenwart der bezeichneten Verbindung inkubiert. Nach 4 Stunden wurde das Medium gesammelt, die Proteine präzipitiert und einer Immunoblotanalyse mit dem monoklonalen Antikörper 6E10, gefolgt von einem sekundären [^35S]-markierten Anti-Maus-IgG-Antikörper, unterzogen. • (B) Quantitative Analyse des sekretierten APPsα. Die APPsα entsprechenden radioaktiven Banden wurden mit Hilfe eines Bio-Imaging Analyzer BAS-1800 quantifiziert. Die Meßwerte wurden wie in dem Beispiel beschrieben, auf verschiedene Proteinmengen normiert. […]
(§2) 8.10^5 HEK und HEK-ADAM10-Zellen (HEK-Zellen, die ADAM 10 stabil exprimieren, Verfahren wie oben) wurden auf 5 cm Zellkulturschalen, die mit Poly-L-Lysin behandelt worden waren, ausgesät und fast bis zu Konfluenz hochgezogen. […] Die radioaktiven Banden, die APPsα entsprachen, wurden mit Hilfe des Bio-Imaging-Analysers-BAS-1800 (Fuji) quantifiziert. […]
(§3) Die α-Sekretaseaktivität in HEK-ADAM 10 Zellen wurde mit der Aktivität, die in untransfizierten HEK-Zellen gefunden wurde, verglichen. […] Immunoblotexperimente und Immunopräzipitation nach metabolischer [^35S]-Markierung wurden durchgeführt, um die α-Sekretaseaktivität zu quantifizieren (Fig. 5 und Fig. 6). […]
(In general: Immunoblotting shows a protein as a band on a membrane.)

Another assay concerns HEK-ADAM 10-Zellen. Briefly: Immunoblot analysis of APPsα secretion into the medium (antibody 6E10), HEK cells stably expressing ADAM 10. It is filed as cell-based. The following applies: Homo sapiens, HEK293; HEK-ADAM 10 cells, 1 µm PMA, 4 h, Fig. 5 lanes 4 and 5; read-out: Vergrößerung der α-Sekretaseaktivität (APPsα-Freisetzung).
Source text: as §1, §2, §3

Description for gereinigtes ADAM 10: Peptide einer Endkonzentration von 0,3 mM wurden mit 2 µg gereinigten Enzym in 50 µl 50 mM EPPS pH 8,3, 250 mM NaCl bei 37°C 30 Minuten oder 6 Stunden inkubiert. Die Reaktionen wurden mit 2 µl TFA gestoppt. Meßproben wurden mit Hilfe von HPLC auf einer Vydac (The Separation Group, Hesperia, Calif. USA) RP 18 Säule (5 µm, 250 x 4,6 mm) analysiert. Die Peptide wurden mit einem Puffersystem von 0,1 % TFA in Wasser (Puffer A) und 0,1 % TFA, 9,9 % Wasser, 90 % Acetonitril (Puffer B) aufgetrennt, wobei der folgende Gradient angelegt wurde: 0 % B, 5 Min.; 0 bis 70 % B innerhalb 45 Min. Das Molekulargewicht der Proteolyseprodukte wurde mit ESI-Massenspektrometrie bestimmt. Für die Berechnung der prozentualen Spaltung wurde die Peakfläche, die ein Peptid ergab, das ohne Enzym inkubiert und ansonsten identisch behandelt wurde, als Referenz für 100 % herangezogen.
Einige Metalloproteinase-Inhibitoren wurden auf ihre Fähigkeit, die proteolytische Spaltung von Aβ(11-28) durch gereinigtes ADAM 10 zu inhibieren, getestet.

Take `c1cnc2c(c1)ccc1cccnc12` [1,10-Phenanthrolin]: the “Inhibierung der proteolytischen Spaltung von Aβ(11-28) durch gereinigtes ADAM 10” value at gereinigtes ADAM 10 was “inhibierte”.

On to `CCCCCCCCCCCCCC(=O)O[C@@H]1[C@@H](C)[C@@]2(O)[C@@H](C=C(CO)C[C@]3(O)C(=O)C(C)=C[C@@H]23)[C@@H]2C(C)(C)[C@]12OC(C)=O` [PMA, Phorbol-12-myristat-13-acetat], for which the fold induction at 1 µM is around 6 in the assay with HEK-Zellen and 2.5 with HEK-ADAM 10-Zellen.

Regarding `OC(CS)C(O)CS` (stereo not shown) [DTT], the “Inhibierung der proteolytischen Spaltung von Aβ(11-28) durch gereinigtes ADAM 10” value on gereinigtes ADAM 10 is “vollständig inhibiert”.
